Data reported in US20260138961A1, “MODULATORS OF MITOCHONDRIAL DNA REPLICATION” (Pretzel Therapeutics, Inc., priority 2022, published 2026).

biological target: T1, POLγA:G848S (Homo sapiens, UniProt P54098, G848S); assay: DNA polymerization assay, POLγA:G848S mutant; type: biochemical; conditions: stimulation of polymerase activity, primed M13mp18 ssDNA, 37° C. 2 hours; read-out: G848S AC50
T1 sequence (P54098 1-1239 G848S): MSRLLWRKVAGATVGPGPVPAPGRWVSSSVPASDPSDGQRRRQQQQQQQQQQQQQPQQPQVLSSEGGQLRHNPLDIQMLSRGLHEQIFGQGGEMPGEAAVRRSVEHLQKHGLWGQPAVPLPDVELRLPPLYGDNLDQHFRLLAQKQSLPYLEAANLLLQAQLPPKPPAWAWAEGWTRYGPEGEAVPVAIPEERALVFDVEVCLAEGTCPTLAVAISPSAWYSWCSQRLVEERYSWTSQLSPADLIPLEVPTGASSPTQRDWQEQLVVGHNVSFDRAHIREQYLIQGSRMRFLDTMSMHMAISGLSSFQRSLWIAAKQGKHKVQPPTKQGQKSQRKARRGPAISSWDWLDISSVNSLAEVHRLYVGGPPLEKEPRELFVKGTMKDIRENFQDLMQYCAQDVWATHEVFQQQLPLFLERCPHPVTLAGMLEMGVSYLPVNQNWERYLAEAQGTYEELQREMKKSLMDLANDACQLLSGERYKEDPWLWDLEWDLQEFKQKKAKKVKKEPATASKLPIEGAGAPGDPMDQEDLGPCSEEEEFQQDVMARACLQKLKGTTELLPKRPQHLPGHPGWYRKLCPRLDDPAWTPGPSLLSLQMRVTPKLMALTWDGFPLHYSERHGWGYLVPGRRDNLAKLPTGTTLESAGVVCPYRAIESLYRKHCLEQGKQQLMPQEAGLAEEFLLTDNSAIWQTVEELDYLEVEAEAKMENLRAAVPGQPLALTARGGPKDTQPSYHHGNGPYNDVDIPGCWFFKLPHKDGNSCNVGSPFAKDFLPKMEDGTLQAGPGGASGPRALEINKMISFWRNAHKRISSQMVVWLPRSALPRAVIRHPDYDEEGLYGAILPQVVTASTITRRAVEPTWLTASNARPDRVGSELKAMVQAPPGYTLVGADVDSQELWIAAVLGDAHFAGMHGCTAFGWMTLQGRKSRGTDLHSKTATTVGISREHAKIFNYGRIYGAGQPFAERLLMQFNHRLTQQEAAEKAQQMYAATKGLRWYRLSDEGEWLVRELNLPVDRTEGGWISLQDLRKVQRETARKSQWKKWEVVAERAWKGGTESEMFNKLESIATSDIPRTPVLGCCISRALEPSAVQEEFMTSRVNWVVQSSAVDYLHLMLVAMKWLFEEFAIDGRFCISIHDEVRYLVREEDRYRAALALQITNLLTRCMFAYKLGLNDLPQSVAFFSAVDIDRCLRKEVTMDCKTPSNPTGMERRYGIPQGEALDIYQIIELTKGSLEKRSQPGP
T1 sequence (Q9UHN1 1-485 partner): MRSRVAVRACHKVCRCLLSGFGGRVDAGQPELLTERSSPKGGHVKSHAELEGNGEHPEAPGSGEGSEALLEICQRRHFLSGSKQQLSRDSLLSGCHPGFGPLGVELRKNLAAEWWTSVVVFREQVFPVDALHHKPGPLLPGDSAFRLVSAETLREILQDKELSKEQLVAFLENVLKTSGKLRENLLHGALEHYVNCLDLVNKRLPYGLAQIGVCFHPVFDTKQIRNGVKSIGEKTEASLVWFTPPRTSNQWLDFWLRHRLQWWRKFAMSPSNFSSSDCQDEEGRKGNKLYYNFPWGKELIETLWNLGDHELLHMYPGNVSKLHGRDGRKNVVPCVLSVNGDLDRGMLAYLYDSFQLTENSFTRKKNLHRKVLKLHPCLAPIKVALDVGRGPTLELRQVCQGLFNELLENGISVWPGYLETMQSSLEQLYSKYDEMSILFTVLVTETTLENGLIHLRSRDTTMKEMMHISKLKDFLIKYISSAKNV

| SMILES | AC50 [µM] |
| --- | --- |
| Cc1cc(S(=O)(=O)NC2CCOc3c(Cl)cccc32)c(C)cc1Cl (stereo not drawn) [Example 82, 4-chloro-N-(8-chlorochroman-4-yl)-2,5-dimethylbenzenesulfonamide] | > 10 |
| Cc1nc2cccc(NS(=O)(=O)c3cc(C)c(Cl)cc3C)c2s1 [Example 85, 4-chloro-2,5-dimethyl-N-(2-methylbenzo[d]thiazol-7-yl)benzenesulfonamide] | > 100 |
| Cc1cc(S(=O)(=O)Nc2ccc3ccn(C)c3c2)c(C)cc1Cl [Example 72, 4-chloro-2,5-dimethyl-N-(1-methyl-1H-indol-6-yl)benzenesulfonamide] | 98 |
| Cc1csc(-c2ccccc2NS(=O)(=O)c2cc(C)c(Cl)cc2C)n1 [Example 80, 4-chloro-2,5-dimethyl-N-(2-(4-methylthiazol-2-yl)phenyl)benzenesulfonamide] | > 10 |
| Cc1cc(S(=O)(=O)Nc2cccc(-c3ncc(CO)s3)c2)c(C)cc1Cl [Example 89, 4-chloro-N-(3-(5-(hydroxymethyl)thiazol-2-yl)phenyl)-2,5-dimethylbenzenesulfonamide] | 3 |
| Cc1cc(S(=O)(=O)Nc2csc(-c3ccnn3C)n2)c(C)cc1Cl [Example 182, 4-chloro-2,5-dimethyl-N-(2-(1-methyl-1H-pyrazol-5-yl)thiazol-4-yl)benzenesulfonamide] | 0.9 |
| Cc1cc(S(=O)(=O)Nc2cc(-c3ccccc3)no2)c(C)cc1Cl [Example 84, 4-chloro-2,5-dimethyl-N-(3-phenylisoxazol-5-yl)benzenesulfonamide] | > 10 |
| Cc1cc(S(=O)(=O)Nc2cccc(-c3ncc(C4CC4)s3)c2)c(C)cc1Cl [Example 76, 4-chloro-N-(3-(5-cyclopropylthiazol-2-yl)phenyl)-2,5-dimethylbenzenesulfonamide] | 3 |
| Cc1cnc(-c2ccccc2NS(=O)(=O)c2cc(C)c(Cl)cc2C)s1 [Example 79, 4-chloro-2,5-dimethyl-N-(2-(5-methylthiazol-2-yl)phenyl)benzenesulfonamide] | > 10 |

Second part, the molecule after the results:

| AC50 [µM] | SMILES |
| --- | --- |
| 3 | Cc1cnc(-c2ccc(NS(=O)(=O)c3cc(C)c(Cl)cc3C)cc2)s1 [Example 83, 4-chloro-2,5-dimethyl-N-(4-(5-methylthiazol-2-yl)phenyl)benzenesulfonamide] |
| 2 | Cc1cc(S(=O)(=O)Nc2csc(-c3ccccc3)n2)c(C)cc1Cl [Example 81, 4-chloro-2,5-dimethyl-N-(2-phenylthiazol-4-yl)benzenesulfonamide] |
| > 100 | Cc1nc2cc(NS(=O)(=O)c3cc(C)c(Cl)cc3C)ccc2o1 [Example 75, 4-chloro-2,5-dimethyl-N-(2-methylbenzo[d]oxazol-5-yl)benzenesulfonamide] |
| > 100 | Cc1cc(S(=O)(=O)Nc2ccc(-c3ncc(CN(C)C)s3)cc2)c(C)cc1Cl [Example 86, 4-chloro-N-(4-(5-((dimethylamino)methyl)thiazol-2-yl)phenyl)-2,5-dimethylbenzenesulfonamide] |
| > 100 | Cc1cc(S(=O)(=O)Nc2ccccc2-c2ncco2)c(C)cc1Cl [Example 77, 4-chloro-2,5-dimethyl-N-(2-(oxazol-2-yl)phenyl)benzenesulfonamide] |
| > 10 | Cc1cnc(-c2cccc(S(=O)(=O)Nc3cc(C)c(Cl)cc3C)c2)s1 [Example 78, N-(4-chloro-2,5-dimethylphenyl)-3-(5-methylthiazol-2-yl)benzenesulfonamide] |
| > 100 | Cc1cc(S(=O)(=O)Nc2cccc(-c3ncc(C(=O)O)s3)c2)c(C)cc1Cl [Example 90, 2-(3-((4-chloro-2,5-dimethylphenyl)sulfonamido)phenyl) thiazole-5-carboxylic acid] |
| > 100 | COC(=O)c1cnc(-c2cccc(NS(=O)(=O)c3cc(C)c(Cl)cc3C)c2)s1 [Example 88, methyl 2-(3-((4-chloro-2,5-dimethylphenyl)sulfonamido)phenyl) thiazole-5-carboxylate] |
| 14 | Cc1cc(S(=O)(=O)Nc2cccc(-c3ncc(CN(C)C)s3)c2)c(C)cc1Cl [Example 87, 4-chloro-N-(3-(5-((dimethylamino)methyl)thiazol-2-yl)phenyl)-2,5-dimethylbenzenesulfonamide] |
| > 100 | Cc1cc(S(=O)(=O)Nc2ccc3nc(-c4ccccc4)sc3c2)c(C)cc1Cl [Example 74, 4-chloro-2,5-dimethyl-N-(2-phenylbenzo[d]thiazol-6-yl)benzenesulfonamide] |
| > 100 | Cc1cc(S(=O)(=O)Nc2cccc(C(=O)N3CCCN(C(=O)C(C)C)CC3)c2)c(C)cc1Cl [Example 91, 4-chloro-N-(3-(4-isobutyryl-1,4-diazepane-1-carbonyl)phenyl)-2,5-dimethylbenzenesulfonamide] |
| 14 | Cc1nc2ccc(NS(=O)(=O)c3cc(C)c(Cl)cc3C)cc2s1 [Example 73, 4-chloro-2,5-dimethyl-N-(2-methylbenzo[d]thiazol-6-yl)benzenesulfonamide] |
